From US20250020635A1, “ASSAY METHODS AND USES THEREOF FOR SCREENING ALZHEIMER'S DISEASE TREATMENT COMPOUNDS” (priority 2023, published 2025)

What was measured:
PLCγ2 enzyme = target: T1, PLCγ2 enzyme (Homo sapiens, UniProt P16885); test: Liposomal biochemical assay with fluorogenic probe XY-69; settings: for increase in PLCγ2 activity (change in slope relative to control): dose response, liposomes with XY-69
T1 sequence (P16885 1-1265): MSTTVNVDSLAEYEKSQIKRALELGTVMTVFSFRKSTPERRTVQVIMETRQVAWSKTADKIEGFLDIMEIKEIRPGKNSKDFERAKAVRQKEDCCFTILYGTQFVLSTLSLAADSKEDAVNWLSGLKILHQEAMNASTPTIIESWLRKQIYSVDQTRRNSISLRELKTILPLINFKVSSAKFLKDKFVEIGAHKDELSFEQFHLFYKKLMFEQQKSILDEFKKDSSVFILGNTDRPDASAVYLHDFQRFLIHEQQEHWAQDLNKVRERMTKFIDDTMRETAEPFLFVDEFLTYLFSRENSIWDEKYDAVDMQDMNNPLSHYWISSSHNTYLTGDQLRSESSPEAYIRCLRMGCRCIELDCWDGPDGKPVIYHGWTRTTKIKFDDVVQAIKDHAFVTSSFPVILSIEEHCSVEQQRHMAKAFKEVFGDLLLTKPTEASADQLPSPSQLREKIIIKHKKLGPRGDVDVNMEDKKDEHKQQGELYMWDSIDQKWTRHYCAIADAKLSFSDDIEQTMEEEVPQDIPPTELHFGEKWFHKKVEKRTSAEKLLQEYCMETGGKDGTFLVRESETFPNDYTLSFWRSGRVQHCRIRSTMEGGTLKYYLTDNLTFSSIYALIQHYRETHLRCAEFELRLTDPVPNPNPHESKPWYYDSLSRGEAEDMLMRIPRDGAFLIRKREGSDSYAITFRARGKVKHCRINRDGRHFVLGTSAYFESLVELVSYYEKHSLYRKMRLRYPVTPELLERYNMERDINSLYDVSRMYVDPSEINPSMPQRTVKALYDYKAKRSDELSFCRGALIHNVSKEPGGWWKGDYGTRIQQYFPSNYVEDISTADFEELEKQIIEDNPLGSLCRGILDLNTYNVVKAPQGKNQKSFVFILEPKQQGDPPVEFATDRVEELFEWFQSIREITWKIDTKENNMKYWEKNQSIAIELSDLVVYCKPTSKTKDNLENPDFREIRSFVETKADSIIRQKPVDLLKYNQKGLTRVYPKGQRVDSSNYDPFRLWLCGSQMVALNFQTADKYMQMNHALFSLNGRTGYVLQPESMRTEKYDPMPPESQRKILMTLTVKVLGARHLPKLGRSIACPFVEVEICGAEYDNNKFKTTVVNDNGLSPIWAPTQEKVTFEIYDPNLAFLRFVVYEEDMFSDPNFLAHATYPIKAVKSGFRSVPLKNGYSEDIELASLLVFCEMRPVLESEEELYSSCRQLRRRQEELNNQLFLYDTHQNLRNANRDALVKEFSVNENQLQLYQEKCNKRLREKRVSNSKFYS
Source text: Sondek and coworkers have described an assay for PLCγ1 activity in the presence of liposomes as a model for activity at the cell membrane where the natural ligand is located.^36 The assay was redeveloped and reoptimized for PLCγ2 at the Purdue Institute for Drug Discovery. Liposomes containing XY-69 (purchased from Avanti Polar Lipids, cat. #850168) were generated using phosphatidylinositol 4,5-bisphosphate (PIP2) and 1-stearoyl-2-arachidonoyl-sn-glycero-3-phosphatidylethanolamine (lipidPE). The PLCγ2 enzyme was exposed to this solution and, after treatment with the compounds of interest, the fluorescence intensity (ex: 485 nm; em: 520 nm) was recorded every 2 min for 120 min (FIG. 19). The slope of the linear portion of the curves (up to 50 min) was compared to control giving a relative rate of reaction. Dose dependent curves of a representative sample of the compounds tested are shown (FIG. 20A-20B).

HMC3 cells = test: Microglial phagocytosis/cell health high-content assay, HMC3 cells; type: cell-based; settings: 60 μM, 48 hrs, compared to control
Description: (§1) The assay introduced here is a simplified cellular imaging assay without any fixation and washing steps, while producing multiparameter measurements with high capacity using a 384-well plate format. The assay procedures include plating cells on day 1, incubating cell plates overnight before treating cells on day 2, adding pHrodo™-myelin/membrane debris to cell plates on day 3, and 20 hr later, staining cell nuclei with Hoechst-33342 for 30 min before performing high-content imaging on day 4. Three selected parameters are measured from cells: 1) mean total fluorescence intensity per cell of pHrodo™-myelin/membrane debris in phagocytosis vesicles to quantify phagocytosis; 2) cell counts per well to quantify treatment effects on proliferation and cell death; and 3) average nuclear intensity to quantify treatment-induced nuclear changes such as in apoptosis. The assay has been used on HMC3 cells (an immortalized human microglial cell line), BV2 cells (an immortalized mouse microglial cell line), and primary microglia isolated from mouse brains. For initial assay attempts, we recommend using HMC3 cells available from the ATCC.
(§2) All collected raw data are normalized to the untreated control with following formula: % of control=100×(X−Min)/(Max−Min). Factors in the formula are: X is raw data from a treated well, Max is an average measurement from pHrodo™-myelin seeded but untreated wells, and Min is an average measurement from no pHrodo™-myelin untreated wells. Normalized data are used for curve fitting that is done with the variable slope (four parameters) using the Prism software.
(§3) To ensure that the measurements reflect the steady state of compound treatment effects and cell health, the assay was set with a total compound treatment time of 48 hr, including pHrodo™-myelin/membrane debris seeding performed 20-24 hr after compound addition. […] Among many available quantitative measurements from the image analysis, we selected three parameters for the assay:
(§4) 1) The mean total intensity of phagocytosis vesicles/cell—to measure phagocytosis. There are multiple parameters generated from the image analysis, including phagocytosis vesicle area, number, and various fluorescence intensity measurements. Comparing these parameters, the total fluorescence intensity of vesicles/cell is the most sensitive one and was chosen for quantifying phagocytosis.
(§5) 2) The total cell counts—to measure overall cell viability, which is affected by proliferation and cell death. We chose to take 4 images/well (with the 10× objective lens) that cover about 50% of the total area of a well in a 384-well plate to represent cell count of the well.
(§6) 3) The average nuclear intensity—to measure drug-induced apoptosis, with high signal indicating nuclear condescension (a sign of early apoptosis) and low signal indicating DNA degradation (a sign of later apoptosis, when activated caspases digest DNA).
(§7) A phenotypic high-content imaging assay with simultaneous measurements of phagocytosis, cell number, and nuclear intensity was used to assess both cellular pharmacology and cell health. Model cell lines BV2 (immortalized mouse microglia, a gift from Dr. Michelle Block's laboratory at IUSM) and HMC3 (immortalized human microglia, obtained from ATCC, CRL-3304) were used to provide adequate throughput. Cells were cultured in DMEM GlutaMax media (ThermoFisher) containing 10% FBS and Pen-Strep in a 37° C. 5% CO2 incubator, plated in Corning Falcon 384 well Optilux Black and clear bottom plates: 400 cells/45 μl/well (BV2 cells), 600 cells/45 μl/well (HMC3 cells) and 2000 cell/45 μl/well (primary cells), and treated with 10× serially diluted compounds (60 μM-3 nM) for 48 hrs at 37° C. […]

BV2 cells = test: Microglial phagocytosis/cell health high-content assay, BV2 cells; type: cell-based; settings: for Ave. % Cell Count @ 60 uM BV2 cells / Ave. % Phagocytosis @ 60 uM BV2 cells: 48 hrs, compared to control
Description: as §1, §2, §3, §4, §5, §6, §7

Row | SMILES | increase in PLCγ2 activity (change in slope relative to control) (PLCγ2 enzyme) | increase in PLCγ2 activity (change in slope relative to control) (PLCγ2 enzyme; listed as m-3M3FBS) | Ave. % Cell Count @ 60 uM HMC3 cells (HMC3 cells) [%] | Ave. % Phagocytosis @ 60 uM HMC3 cells (HMC3 cells) [%] | Ave. % Cell Count @ 60 uM BV2 cells (BV2 cells) [%] | Ave. % Phagocytosis @ 60 uM BV2 cells (BV2 cells) [%] | enzymatic activation, single dose (PLCγ2 enzyme; 100 μM) | phagocytosis increase against cell count decline (BV2 cells; HMC3 and BV2 cells (Table 6, FIGS. 21, 22))
1 | Cc1cc(C)c(S(=O)(=O)Nc2cccc(C(F)(F)F)c2)c(C)c1 [Compound 1, 2,4,6-trimethyl-N-(meta-3-trifluoromethyl-phenyl)-benzenesulfonamide, reference compound] | among the highest increases of all analogs tested | highest increase in response | 3 | 0 | 2 | 0.05 | – | –
2 | Cc1cc(C)c(S(=O)(=O)Nc2ccccc2C(F)(F)F)c(C)c1 [Compound 2, o-3M3FBS, reference compound] | much lower, though it still showed a statistically significant increase in activation | – | 103 | 99 | 104 | 104 | – | –
3 | Cc1cc(C)c(S(=O)(=O)NC2CCCNC2)c(C)c1 (stereo not drawn) [Compound 11] | – | – | 65 | 146 | 63 | 225 | no enzymatic activation | moderate degree of potential cytotoxicity
4 | O=S(=O)(Nc1ccc(Br)cc1F)c1cccs1 [Compound 8] | – | – | 88 | 104 | 86 | 114 | – | –
